Experimental data published in ChEMBL document CHEMBL2062378, “Antimycobacterial activity: a facile three-component [3+2]-cycloaddition for the regioselective synthesis of highly functionalised dispiropyrrolidines” (Bioorg Med Chem Lett, 2012).
Values after ≈ are worked out from the molar mass of the structure shown.

Columns and labels:
Vero = assay: Cytotoxicity against african green monkey Vero cells after 72 hrs by MTT assay; format: cell-based; conditions: Chlorocebus sabaeus
[1] = test system: Mycobacterium tuberculosis; assay: Antimycobacterial activity against Mycobacterium tuberculosis H37Rv ATCC 27294 by alamar blue broth microdilution assay; format: functional

SMILES | IC50 (Vero) [mg/L] | MIC90 [1] [µM]
CN1CC(c2ccccc2)C2(Cc3ccccc3C2=O)C12C(=O)c1ccccc1C2=O (stereo unspecified) | > 62.5 | 6.22 (≈ 2.53 µg/mL)
CN1CC(c2cncc(-c3ccc(F)cc3)c2)C2(Cc3ccccc3C2=O)C12C(=O)c1ccccc1C2=O (stereo unspecified) | > 62.5 | 0.121 (≈ 0.0611 µg/mL)
CN1CC(c2ccc(Cl)cc2)C2(Cc3ccccc3C2=O)C12C(=O)c1ccccc1C2=O (stereo unspecified) | > 62.5 | 1.2 (≈ 0.528 µg/mL)
CN1CC(c2ccc(Br)cc2)C2(Cc3ccccc3C2=O)C12C(=O)c1ccccc1C2=O (stereo unspecified) | > 62.5 | 1.37 (≈ 0.667 µg/mL)
CN1CC(c2ccc(C(=O)O)cc2)C2(Cc3ccccc3C2=O)C12C(=O)c1ccccc1C2=O (stereo unspecified) | > 62.5 | 0.295 (≈ 0.133 µg/mL)
CN1CC(c2cccc([N+](=O)[O-])c2)C2(Cc3ccccc3C2=O)C12C(=O)c1ccccc1C2=O (stereo unspecified) | > 62.5 | 0.81 (≈ 0.366 µg/mL)
CN1CC(c2ccc(C(F)(F)F)cc2)C2(Cc3ccccc3C2=O)C12C(=O)c1ccccc1C2=O (stereo unspecified) | > 62.5 | 0.638 (≈ 0.303 µg/mL)
CN1CC(c2ccc(OC(F)(F)F)cc2)C2(Cc3ccccc3C2=O)C12C(=O)c1ccccc1C2=O (stereo unspecified) | > 62.5 | 0.214 (≈ 0.105 µg/mL)
COc1ccc(C2CN(C)C3(C(=O)c4ccccc4C3=O)C23Cc2ccccc2C3=O)cc1 (stereo unspecified) | > 62.5 | > 6.25
CN1CC(c2cccc3c2OCO3)C2(Cc3ccccc3C2=O)C12C(=O)c1ccccc1C2=O (stereo unspecified) | > 62.5 | 2.42 (≈ 1.09 µg/mL)
CN(C)c1ccc(C2CN(C)C3(C(=O)c4ccccc4C3=O)C23Cc2ccccc2C3=O)cc1 (stereo unspecified) | > 62.5 | 3.32 (≈ 1.5 µg/mL)
CN1CC(c2ccc(N3CCOCC3)cc2)C2(Cc3ccccc3C2=O)C12C(=O)c1ccccc1C2=O (stereo unspecified) | > 62.5 | 1.22 (≈ 0.598 µg/mL)
NNC(=O)c1ccncc1 [ISONIAZID] | > 62.5 | 0.73 (≈ 0.1 µg/mL)
